This is an account of results in patent publication US9303017B2, “2,5-disubstituted-pyridyl nicotinic ligands, and methods of use thereof” (Georgetown University, priority 2011, dated 2016).

The target of one data set is α7 nAChR (Rattus norvegicus (Rat), UniProt Q05941). The data set is classed as binding. The note with it: Table 1; mean of 3 to 5 measurements. The procedure:
In Vitro Binding Affinities for nAChR Subtypes. […] To determine selectivities of these compounds in binding assays among the three predominant nAChR subtypes, α3β4, α4β2 and α7, the ratios of Ki values (α3β4/α4β2 and α7/α4β2) were determined.
(§1) Cell Lines and Cell Culture. The cell lines expressing defined rat nAChR subtypes were established previously by stably transfecting HEK 293 cells with rat nAChR subunit genes. The cell line expressing human α4β2 nAChRs, YXα4β2H1, was established recently. These cell lines were maintained in minimum essential medium (MEM) supplemented with 10% fetal bovine serum, 100 units/mL penicillin G, […] and selective antibiotics at 37° C. with 5% CO2 in a humidified incubator. Fetal bovine serum was provided by Gemini Bio-Products (Woodland, Calif.). Tissue culture medium and antibiotics were obtained from Invitrogen Corporation (Carlsbad, Calif.), unless otherwise stated.
Briefly, cultured cells at >80% confluence were removed from their flasks (80 cm^2) with a disposable cell scraper and placed in 10 mL of 50 mM Tris.HCl buffer (pH 7.4, 4° C.). The cell suspension was centrifuged at 10,000×g for 5 min and the pellet was collected. The cell pellet was then homogenized in 10 mL buffer with a polytron homogenizer and centrifuged at 36,000 g for 10 min at 4° C. The membrane pellet was resuspended in fresh buffer, and aliquots of the membrane preparation were used for binding assays. […] Bound and free ligands were separated by vacuum filtration through Whatman GF/C filters treated with 0.5% polyethylenimine. The filter-retained radioactivity was measured by liquid scintillation counting. Specific binding was defined as the difference between total binding and nonspecific binding. Data from competition binding assays were analyzed using Prism 5 (GraphPad Software, San Diego, Calif.).
Pharmacological Properties. We measured the in vitro binding affinities of the ligands for defined receptor subtypes (α2β2, α2β4, α3β2, α3β4, α4β2, α4β4, α6β2, α6β4, and α7) expressed in stably transfected cell lines. […] Rat forebrain homogenates were included to allow comparison between the heterologous and native α4β2 and α7 nAChRs. See Table 1 for binding affinity values (Ki) of the ligands at the three major nAChR subtypes (α3β4. α4β2 and α7).

The target of another data set is human α4β2 nAChRs (Homo sapiens (Human), UniProt P17787+P43681). In words: 86Rb+ efflux assay (activation and desensitization), α4β2. The class given is cell-based. Conditions: for Emax: read-out: Emax α4β2 nAChRs; for IC50: desensitization. The procedure: In Vitro Effects on nAChR Function. […] Their agonist activities were assessed by measuring stimulated ^86Rb^+ efflux from stably transfected cells, either expressing human α4β2 nAChRs or rat α3β4 receptors.
as §1
^86Rb^+ Efflux Assay. Functional properties of compounds at nAChRs expressed in the transfected cells were measured using ^86Rb^+ efflux assays as described previously. In brief, cells expressing human α4β2 or rat α3β4 nAChRs were plated into 24-well plates coated with poly-D-lysine. The plated cells were grown at 37° C. for 18 to 24 hour to reach 85-95% confluence. The cells were then incubated in growth medium (0.5 mL/well) containing ^86Rb^+ (2 μCi/mL) for 4 hour at 37° C. The loading mixture was then aspirated, and the cells were washed four times with 1 mL buffer (15 mM HEPES, 140 mM NaCl, 2 mM KCl, 1 mM MgSO4, 1.8 mM CaCl2, 11 mM Glucose, pH 7.4). One mL of buffer with or without compounds to be tested was then added to each well. After incubation for 2 min, the assay buffer was collected for measurements of ^86Rb^+ released from the cells. Cells were then lysed by adding 1 mL of 100 mM NaOH to each well, and the lysate was collected for determination of the amount of ^86Rb^+ that was in the cells at the end of the efflux assay. Radioactivity of assay samples and lysates was measured by liquid scintillation counting. Total loading (cpm) was calculated as the sum of the assay sample and the lysate of each well. The amount of ^86Rb^+ efflux was expressed as a percentage of ^86Rb^+ loaded. […] For obtaining EC50 and Emax values, stimulation curves were constructed in which 8 different concentrations of a ligand were included in the assay. […] EC50, Emax and IC50(10′) values were determined by nonlinear least-squares regression analyses (GraphPad, San Diego, Calif.).
The functional properties of the ligands were determined by ^86Rb^+ efflux assays in cells expressing α3β4 and α4β2 nAChR subtypes. The functional activity of each ligand was measured for its agonism, antagonism and desensitization ability. Agonist activity for each of the ligands was tested at eight different concentrations. […] The full concentration-effect curves generated potency (EC50) and efficacy (Emax) of each ligand. […] We tested each ligand for antagonist activity at eight concentrations. The potency (IC50(0′)) of each ligand as an antagonist was derived from the full concentration-effect curves.

A further data set concerns ferrets. The data set is described as follows: Emesis studies in ferrets. The class given is in vivo, ferret (Mustela putorius furo). The note with it: 1-30 mg/kg s.c., 1 hr observation. The procedure: Emetic Effects of Compound (S)-15 (YL-1-127) in Ferrets. Effects of (S)-15 in causing nausea and emesis were assessed in a ferret model. For comparison, varenicline was also tested. […] In general, all animals remained alert and active with periods of inactivity that mirrored their baseline behavior within the 1 hr observation period.
In one animal, this behavior was accompanied by oral stereotypy (licking), whereas in two animals it was interspersed by episodes of backward walking. On the average, these behaviors manifested around ˜2.20 min. […] Occasionally, when animals tried to ambulate they would immediately cease their movement after each attempt. This would be followed by a momentary increase in breathing, giving the impression that the animal was in distress.
General Procedures for Emesis Studies in Ferrets. Studies were undertaken in male ferrets (Mustela putorius furo) weighing 0.9-1.5 kg (Marshall Farms, N.Y.). They were housed in controlled conditions of room temperature (22° C.) and light (12:12 h light-dark cycle) with free access to food and water. Prior to each experiment, food was withheld overnight, whereas water was provided ad libitum.
Emetic testing consisted of placing animals individually in a polycarbonate enclosure. Following a 30 min acclimation period, each animal randomly received a subcutaneus injection of varencline or compound (S)-15 (YL-1-127) in the subscapular region. A 60 min observation and video recording followed the drug administration. […] All drugs were dissolved in sterile saline.
Video analysis of the incidence of emesis, stereotypical behaviors (such as licking, mouth-clawing, backward walking, gagging, and burying of the head in cage) and GI side effects (diarrhea) was done off-line. Stereotypical behaviors are thought to be reflective of a subjective sensation of nausea. The emetic index of a drug was calculated as the […] of animals displaying emesis (one or more times in 60 min) divided by the total number of animals tested. An emetic episode was defined as the forceful oral expulsion of liquid or solid upper gastrointestinal contents that is temporally separated from another by at least 30 s.
The Nausea Index for the stereotypical behaviors was derived from the mean±SEM number of nausea behaviors observed among all animals in a given treatment group. Significance was determined at p<0.05.

Like-named read-outs stand apart in the source and are kept apart here.

Turning to `CCCCC#Cc1cnc(C)c(OC[C@@H]2CCN2)c1` [(S)-15, (S)-3-(azetidin-2-ylmethoxy)-5-(hex-1-ynyl)-2-methylpyridine], at α7 nAChR, the Ki (in general, the equilibrium dissociation constant of an inhibitor or competing ligand from its target) was determined as 93000 nM. Further, on human α4β2 nAChRs (agonist activity, ND = no significant stimulated efflux detected), the EC50 – broadly, the concentration that produces a half-maximal response – was found to be 310 nM. Besides, the Emax – broadly, the maximal effect, on the per cent scale that the assay sets – at human α4β2 nAChRs (agonist efficacy normalized to Emax of nicotine, ND = no significant stimulated efflux detected) was less than 20%; on human α4β2 nAChRs, 15%. Further, the IC50 (in general, the concentration at which inhibition is half-maximal) on human α4β2 nAChRs (10 min pre-treatment, Table 3 (Example 4), read-out: IC50(10′) α4β2) was 18 nM; on human α4β2 nAChRs (10 min pre-incubation before 100 μM nicotine, Table 2, read-out: IC50(10′) α4β2 nAChRs), 180 nM. Also, in the data set with ferrets, the “emetic episodes or stereotypical behaviors indicative of nausea” value was “did not elicit any emetic episodes or stereotypical behaviors”.
